Source: patent publication US9434763B2, “Derivatives of pyridinone as inhibitors for tissue transglutaminase” (ZEDIRA GMBH, priority 2012, dated 2016)

What was measured:
Type in all cases: cell-based
[1] = tested on: Huh 7 (human hepatome-cell line); assay: Cytotoxicity: proliferation, Cell Proliferation ELISA, BrdU, Huh 7; settings: Huh7 cells; inhibitors up to highest measured concentration of 1 mM (so in the source); cycloheximide 2.5 μg/ml, camptothecin 0.2 μg/ml
Experimental: (§1) Huh 7 (human hepatome-cell line) and CaCo2 (human colon carcinoma-cell line) were seeded to 96 well plates in Dulbecco's Modified Eagle's Medium (DMEM)/10% fetal calf serum (FCS) and cultivated. The method is known to the skilled person.
(§2) […] The determination of the proliferation was carried out using the Cell Proliferation ELISA, BrdU (Roche 11 647 229 001): 24 hours after incubation of the cells with the inhibitor BrdU was added. The colorimetric development of the test was made after further 48 hours according to manufacturer's information. The extinction was measured at 450 nm. For determination of the metabolic activity using the EZ4U-Assay (Biomedica B1-5000) the tetrazolium substrate was added to the cells 48 hours after addition of the inhibitor. The capacity for reaction of the cells was measured every hour over a period of 4 hours at 450 nm against a reference filter of 630 nm. DMEM without inhibitor was added as reference in both experiments, as positive control cycloheximide (2.5 μg/ml) and camptothecin (0.2 μg/ml).

[2] = tested on: CaCo2 (human colon carcinoma-cell line); assay: Cytotoxicity: proliferation, Cell Proliferation ELISA, BrdU, CaCo2; settings: CaCo2 cells; inhibitors up to highest measured concentration of 1 mM (so in the source); cycloheximide 2.5 μg/ml, camptothecin 0.2 μg/ml
Experimental: as §1, §2

[3] = tested on: CaCo2 (human colon carcinoma-cell line); assay: Cytotoxicity: metabolic activity, EZ4U-Assay, CaCo2; settings: CaCo2 cells; 48 hours after addition; inhibitors up to 1 mM (so in the source); cycloheximide 2.5 μg/ml, camptothecin 0.2 μg/ml
Experimental: as §1
After one hour the inhibitors A63 (ZED1227), A29 (ZED1098) and A61 (ZED1219) were added in the concentrations 0.1 μM to 1 μM. The determination of the proliferation was carried out using the Cell Proliferation ELISA, BrdU (Roche 11 647 229 001): 24 hours after incubation of the cells with the inhibitor BrdU was added. The colorimetric development of the test was made after further 48 hours according to manufacturer's information. The extinction was measured at 450 nm. For determination of the metabolic activity using the EZ4U-Assay (Biomedica B1-5000) the tetrazolium substrate was added to the cells 48 hours after addition of the inhibitor. The capacity for reaction of the cells was measured every hour over a period of 4 hours at 450 nm against a reference filter of 630 nm. DMEM without inhibitor was added as reference in both experiments, as positive control cycloheximide (2.5 μg/ml) and camptothecin (0.2 μg/ml).

[4] = tested on: Huh 7 (human hepatome-cell line); assay: Cytotoxicity: metabolic activity, EZ4U-Assay, Huh 7; settings: Huh7 cells; 48 hours after addition; inhibitors up to 1 mM (so in the source); cycloheximide 2.5 μg/ml, camptothecin 0.2 μg/ml
Experimental: as §1, §2

CC[C@@]1(O)C(=O)OCc2c1cc1n(c2=O)Cc2cc3ccccc3nc2-1 [camptothecin, reference compound]
significant reduction: effect on proliferation (BrdU) [1] | effect on proliferation (BrdU) [2] | effect on metabolic activity (EZ4U) [3] | effect on metabolic activity (EZ4U) [4]

C[C@@H]1C[C@@H]([C@H](O)CC2CC(=O)NC(=O)C2)C(=O)[C@@H](C)C1 [cycloheximide, reference compound]
significant reduction: effect on proliferation (BrdU) [1] | effect on proliferation (BrdU) [2] | effect on metabolic activity (EZ4U) [3] | effect on metabolic activity (EZ4U) [4]
